Laboratory results taken from paper PMC4269550, “Lead Optimization of a Pyrazole Sulfonamide Series of Trypanosoma bruceiN-Myristoyltransferase Inhibitors: Identification and Evaluation of CNS Penetrant Compounds as Potential Treatments for Stage 2 Human African Trypanosomiasis” (Journal of Medicinal Chemistry, 2014).
Where “and” joins values, the source holds several entries; their conditions need not be identical. Equal values may be shown once. Read-outs that look alike come from different tables or passages of the source.

Tests used:
[1] = in vitro; type: cell-based, human; conditions: human; read-out: MRC-5 EC50
[2] = Intrinsic clearance (Cli), mouse liver microsomes; type: in vitro ADME; conditions: Table S1, unit not given
[3] = tested on: T. b. brucei, BSF427, VSG118; assay: Cell viability assay, trypanosome; type: cell-based
[4] = tested on: MRC5, human lung fibroblast cells; assay: in vitro; type: cell-based
[5] = biological target: T1, TbNMT (Trypanosoma brucei brucei, UniProt Q388H8); assay: NMT enzyme inhibition scintillation proximity assay (TbNMT); type: biochemical, T. brucei
T1 sequence (Q388H8 1-446): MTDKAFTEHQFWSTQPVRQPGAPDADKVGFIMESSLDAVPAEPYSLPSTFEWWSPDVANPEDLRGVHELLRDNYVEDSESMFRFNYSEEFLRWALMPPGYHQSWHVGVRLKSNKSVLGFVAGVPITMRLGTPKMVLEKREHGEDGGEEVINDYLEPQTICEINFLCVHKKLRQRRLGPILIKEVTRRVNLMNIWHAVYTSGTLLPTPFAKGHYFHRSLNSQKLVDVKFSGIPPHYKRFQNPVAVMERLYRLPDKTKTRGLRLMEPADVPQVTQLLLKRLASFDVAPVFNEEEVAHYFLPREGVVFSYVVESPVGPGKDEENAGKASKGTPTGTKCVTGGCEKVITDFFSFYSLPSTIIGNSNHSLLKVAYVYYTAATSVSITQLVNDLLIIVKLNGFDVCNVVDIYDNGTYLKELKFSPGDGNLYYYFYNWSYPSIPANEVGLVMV

[6] = tested on: HsNMT; type: biochemical, human; conditions: for IC50: mean of two or more determinations
[7] = mean of two or more determinations, read-out: TbNMT IC50

| Structure (SMILES) | EC50 [1] | Cli (mouse) [2] | EC50 [3] | EC50 [4] | IC50 [5, 7] | EC50 ([3]; Trypanosoma brucei) | IC50 [6] | S = IC50 HsNMT/EC50 T. brucei ([6]; selectivity) | IC50 [5] | S = IC50 HsNMT/EC50 T. brucei [6] |
| --- | --- | --- | --- | --- | --- | --- | --- | --- | --- | --- |
| Cc1nn(C)c(C)c1NS(=O)(=O)c1ccc(-c2ccnc(N3CCNCC3)c2)cc1F [compound 58] | 530 nM | < 0.5 |  |  |  |  |  |  |  |  |
| Cc1nn(C)c(C)c1NS(=O)(=O)c1c(F)cc(-c2ccnc(N3CCNCC3)c2)cc1F [compound 59] |  | < 0.5 | 5 nM | 4700 nM | 4 nM |  |  |  |  |  |
| Cc1nn(C)c(C)c1NS(=O)(=O)c1ccc(-c2ccnc(N3CCNC(C)C3)c2)cc1 (stereo not shown) [compound 60] | 790 nM |  |  |  |  | 4 nM |  |  |  |  |
| Cc1nn(C)c(C)c1NS(=O)(=O)c1ccc(-c2ccnc(N3CCNC(c4ccccc4)C3)c2)cc1 (stereo not shown) [compound 61] | > 50000 nM |  |  |  |  | > 10000 nM | 2460 nM | < 1 | 800 nM |  |
| Cc1nn(C)c(C)c1NS(=O)(=O)c1ccc(-c2ccnc(N3CC(C)NC(C)C3)c2)cc1 (stereo not shown) [compound 62] | 2690 nM |  |  |  |  | 30 nM |  |  |  |  |
| Cc1nn(C)c(C)c1NS(=O)(=O)c1ccc(-c2ccnc(N3CCNC(C(C)C)C3)c2)cc1 (stereo not shown) [compound 63] | 8160 nM |  |  |  |  | 140 nM |  |  |  |  |
| Cc1nn(C)c(C)c1NS(=O)(=O)c1ccc(-c2ccnc(N3CCNC(Cc4ccccc4)C3)c2)cc1 (stereo not shown) [compound 64] | > 50000 nM |  |  |  |  | > 10000 nM | 1510 nM | < 1 | 110 nM |  |
| Cc1nn(C)c(C)c1N(C(F)F)[S+](=O)([O-])c1c(Cl)cc(CCCN2CCCN(C)CC2)cc1Cl [compound 65] | 410 nM |  |  |  |  | 0.6 nM |  |  |  |  |
| Cc1nn(C)c(C)c1N(C(F)F)S(=O)(=O)c1c(Cl)cc(CCCN2CCCNCC2)cc1Cl [compound 66] |  |  |  | 340 nM |  |  |  |  |  |  |
| Cc1nn(C)c(C)c1N(C(F)F)S(=O)(=O)c1c(Cl)cc(CCCCCCn2ccnc2)cc1Cl [compound 67] | 7200 nM |  |  |  |  | 35 nM | 140 nM |  | 5 nM | 4 |
| Cc1nn(C)c(C)c1N(C(F)F)[S+](=O)([O-])c1c(Cl)cc(CCCCCCn2ccnc2C)cc1Cl [compound 68] | 910 nM |  |  |  |  | 5 nM |  |  |  |  |
| CCc1nccn1CCCCCCc1cc(Cl)c([S+](=O)([O-])N(c2c(C)nn(C)c2C)C(F)F)c(Cl)c1 [compound 69] | 7700 nM |  |  |  |  | 150 nM |  |  |  |  |
| Cc1nn(C)c(C)c1N(C(F)F)S(=O)(=O)c1c(Cl)cc(CCCCCCn2ccnc2C(C)C)cc1Cl [compound 70] | 3600 nM |  |  |  |  | 270 nM | 500 nM |  | 25 nM | 2 |
| Cc1nn(C)c(C)c1N(C(F)F)S(=O)(=O)c1c(Cl)cc(CCCOC2CC3CCC(C2)N3C)cc1Cl (stereo not shown) [compound 71] |  |  | 10 nM | 1500 nM | 2 nM |  | 62 nM | 6 |  |  |
| Cc1nn(C)c(C)c1N(C(F)F)S(=O)(=O)c1c(Cl)cc(CCCOC2CC3CCC(C2)N3C)cc1Cl (stereo not shown) [compound 72] |  |  | 0.2 nM | 70 nM |  |  | 2 nM | 10 |  |  |
| Cc1nn(C)c(C)c1N(C(F)F)S(=O)(=O)c1c(Cl)cc(-c2ccnc(N3CCNCC3)c2)cc1Cl [compound 74] |  |  | 3 nM | 140 nM |  |  |  |  |  |  |
| Cc1nn(C)c(C)c1N(C(F)F)S(=O)(=O)c1c(Cl)cc(CCCOC2CC(C)(C)N(C)C(C)(C)C2)cc1Cl [compound 75] |  |  | 64 nM | 5300 nM | 10 nM |  | 1700 nM | 27 |  |  |
| Cc1nn(C)c(C)c1N(C(F)F)S(=O)(=O)c1c(Cl)cc(CCCOC2CCC(N(C)C)CC2)cc1Cl (stereo not shown) [compound 76] |  |  | 3 nM | 570 nM | 2 nM |  | 5 nM | 2 |  |  |
| Cc1nn(C)c(C)c1N(C(F)F)S(=O)(=O)c1c(Cl)cc(CCCCCCN2CCOCC2)cc1Cl [compound 79] |  |  | 320 nM | 12200 nM | 55 nM |  |  |  |  |  |
| CCN(CC)CCCCCCc1cc(Cl)c(S(=O)(=O)N(c2c(C)nn(C)c2C)C(F)F)c(Cl)c1 [compound 81] |  |  | 14 nM | 2900 nM | 3 nM |  | 42 nM | 3 |  |  |
| CCN(C)CCCCCCc1cc(Cl)c(S(=O)(=O)N(c2c(C)nn(C)c2C)C(F)F)c(Cl)c1 [compound 83] |  |  |  |  |  |  |  | 3 and 5 |  |  |
| Cc1nn(C)c(C)c1N(C(F)F)S(=O)(=O)c1c(Cl)cc(CCCCCCN(C)C(C)C)cc1Cl [compound 84] |  |  | 38 nM | 5100 nM | 3 nM |  | 180 nM | 5 |  |  |
| Cc1nn(C)c(C)c1N(C(F)F)S(=O)(=O)c1c(Cl)cc(CCCOC[C@@H]2CCCN2)cc1Cl [compound 86] |  |  | 6 nM | 3300 nM | 2 nM |  | 110 nM | 18 |  |  |
| Cc1nn(C)c(C)c1N(C(F)F)S(=O)(=O)c1c(Cl)cc(CCCOC[C@H]2CCCN2)cc1Cl [compound 87] |  |  |  | 3200 nM | 3 nM |  | 33 nM | 7 |  |  |
| Cc1nn(C)c(C)c1N(C(F)F)S(=O)(=O)c1c(Cl)cc(CCCOC[C@@H]2CCCCN2)cc1Cl [compound 88] |  |  | 87 nM | 5300 nM | 7 nM |  | 840 nM | 10 |  |  |
